Patent US3969419A, “3-(2-Halo-4-biphenylyl)-1-butanols and derivatives thereof” (Boehringer Ingelheim GmbH, priority 1973, dated 1976)
Read-outs that look alike come from different tables or passages of the source.

What was measured:
in vivo = conditions: po; for selectivity ratio: quotient of ulcerogenic ED50 and average antiexudative ED35, rat, per os, read-out: Therapeutic index: Ratio of ulcerogenic activity to antiexudative activity ED50/ED35; for TD50: rat
Experimental: (§1) The compounds were tested for their anti-exudative effects on the kaolin edema and carrageenin edema of the hind paws of the rat, for their ulcerogenicity and for their acute toxicity by oral administration to rats.
The tests for ulcerogenic activity were effected on FW 49-rats of both sexes (ratio 1:1) having a body weight of 130 to 150 gm. The animals were given the substances on three subsequent days, once each day, as a trituration in tylose by way of an esophageal tube.
The animals were killed four hours after the last administration; the stomach and duodenal mucosa were investigated for ulcers.
From the percentage of animals showing at least one ulcer after administration of different doses, the ED50 -value was calculated according to the method of Litchfield and Wilcoxon [J. Pharmacol. exp. Therap. 96, 99 (1949) ].
(§2) The therapeutic indices, as a measure for the therapeutic usefulness, were calculated by forming the quotient of the ED50 -value for the ulcerogenicity or of th LD50 -value and the ED35 -value derived from the tests for anti-exudative activity against the kaolin and carrageenin edema.

[1] = tested on: carrageenin edema of the hind paws of the rat; assay: anti-exudative effect on the carrageenin edema of the hind paws of the rat; type: in vivo, rat (male FW 49); conditions: per os 60 minutes before provocation of edema, measured 3 hours after, dose leading to 35% reduction of the swelling
Experimental: as §1
(§3) The provocation of the carrageenin edema was effected according to the method of Winter et al. [Proc. Soc. exp. Biol. Med. 111, 544 (1962) ] by subplantary injection of 0.05 ml of a 1% solution of carrageenin in a 0.85% solution of sodium chloride. The test compounds were orally administered 60 minutes before the provocation of the edema.
(§4) For the calculation of the reductive effect on the edema, the values measured three hours after the provocation of the edema were used. All the other details were the same as described above in the case of the kaolin edema.

[2] = tested on: kaolin and carrageenin edema of the hind paws of the rat; assay: average anti-exudative (antiphlogistic) activity against kaolin and carrageenin edema; type: in vivo, rat (male FW 49); conditions: per os, for C only from carrageenin edema
Experimental: The compounds of the present invention were tested for antiphlogistic activity, ulcerogenic activity and acute toxicity in the manner described below, and representative results of these tests are shown in the tables, where
as §1
(§5) The kaolin edema was induced according to the method of Hillebrecht [Arzneimittel-Forsch. 4, 607 (1954) ] by subplantary injection of 0.05 ml of a 10% suspension of kaolin in a 0.85% sodium chloride solution. The measurement of the thickness of the paws was done by using the technique of Doepfner and Cerletti (Int. Arch. Allergy, Immunol. 12, 89 (1958)).
(§6) Male FW 49-rats of an average weight of 120-150 gm were orally treated with the test compounds 30 minutes before inducement of the edema with the aid of a esophageal tube. Five hours after the provocation of the edema the averaged values of the swelling caused in the paws of the rats treated with the test compounds were compared with those values measured on blind-treated control animals. By graphic extrapolation the dose leading to a 35% reduction of the swelling (ED35) was calculated from the percent reduction values measured by administration of different doses.
as §3, §4, §2

rat = assay: acute toxicity by oral administration to rats; type: in vivo; conditions: rat, per os, at 1600 mgm/kg, within 14 days
Experimental: as §1
(§7) After oral administration to male and female FW 49-rats (ratio 1:1) having an average body weight of 135 gm, the acute toxicity (LD50) was determined. The substances were administered orally as a trituration in tylose.
(§8) The calculation of the LD50 -values was effected, as far as possible, according to the method of Litchfield and Wilcoxon, based on the percentage of animals which died within 14 days after administration of the different doses.
as §2

[3] = acute toxicity by oral administration to rats; type: in vivo; conditions: in vivo, po; for selectivity ratio: quotient of LD50 and average anti-exudative ED35, rat, per os, read-out: Therapeutic ratio LD50/aver.ED35; for LD50 at 336 h: rat, per os as trituration in tylose, deaths within 14 days, Litchfield and Wilcoxon
Experimental: as §1, §7, §8, §2

[4] = tested on: kaolin edema of the hind paws of the rat; assay: anti-exudative effect on the kaolin edema of the hind paws of the rat; type: in vivo, rat (male FW 49); conditions: per os 30 minutes before inducement of edema, swelling at 5 hours, dose leading to 35% reduction of the swelling, graphic extrapolation
Experimental: as §1, §5, §6

[5] = Table I, average of kaolin and carrageenin edema, read-out: Average anti-exudative ED35 per os
[6] = Table II, read-out: Average antiexudative ED35

Row | SMILES | selectivity ratio (in vivo) | TD50 (in vivo) [mg/kg] | ED35 [1] [mg/kg] | ED35 [2, 5] [mg/kg] | ED35 [2, 6] [mg/kg] | animals died (rat) | selectivity ratio [3] | LD50 at 336 h [3] [mg/kg] | ED35 [4] [mg/kg]
1 | CC(CCO)c1ccc(-c2ccccc2)c(Cl)c1 (stereo not drawn) [C, 3-(2-chloro-4-biphenylyl)-1-butanol] | 2.15 | 36.6 | 17 | 17 | 17 | 1 out of 10 | > 94.1 | > 1600 | –
2 | CC(CCO)c1ccc(-c2ccccc2)c(F)c1 (stereo not drawn) [A, 3-(2-fluoro-4-biphenylyl)-1-butanol] | 2.39 | 30.5 | 8.5 | 12.8 | 12.8 | – | 64.7 | 825 | 17
3 | CC(CCOC(=O)c1ccncc1)c1ccc(-c2ccccc2)c(F)c1.Cl (stereo not drawn) [B, 3-(2-fluoro-4-biphenylyl)-1-butyl isonicotinate hydrochloride] | 3.7 | 61 | 13 | 16.5 | 16.5 | – | 92.7 | 1530 | 20
